Columns and labels:
Mpn TS = assay: TS activity in total protein extracts of Mpn cultured with TFT; type: cell-based; conditions: various concentrations of TFT, 70 hours culture
Procedure: (§1) Total proteins were extracted from these cultures and used to determine the TK and TS activity.
(§2) Mpn wild type cells were cultured in the presence of [^3H]-dT and different concentrations of TFT. The cells were incubated at 37°C for 70 hours and harvested. The total uptake and incorporation of [^3H]-dT were analysed, and TK and TS activity were determined in total protein extracts.
(§3) To determine the effect of TFT on TK and TS activity, Mpn wild type cells were cultured in 75 cm^2 tissue culture flasks containing 50 ml medium, inoculated with 3 ml of stock culture (1 × 10^9 cfu/ml), in the presence of [^3H]-dT (1 μCi ml^-1) and different concentrations of TFT. After 70 hours at 37°C the cultures were harvested and divided to two aliquots, one was used to determine total uptake/metabolism of radiolabeled dT and total proteins were extracted from the other aliquot and used to measure TK and TS activity using [^3H]-dT and [5-^3H]-dUMP as substrates.

Mpn wild type cells = assay: Uptake and metabolism of tritium labelled natural nucleoside and nucleobases in the presence of analogs; type: cell-based, Mycoplasma pneumoniae
Procedure: The cells were harvested and analyzed essentially as described. Analogs used were dipyridamole, 6-thioguanine (6-TG), trifluorothymidine (TFT), gemcitabine (dFdC) and 5-fluorodeoxyuridine (5FdU). Total uptake is the percent of radioactivity recovered in the cells divided by total radioactivity added to the growth medium. Percent of acid insoluble (radioactivity found in DNA and RNA) was also calculated. These experiments were done more than three times and data are given as mean ± SD.

Mpn TK = assay: TK activity in total protein extracts of Mpn cultured with TFT; type: cell-based, Mycoplasma pneumoniae; conditions: 10 μM TFT, 70 hours culture
Procedure: as §1, §2, §3

Ureaplasma TK [1] = biological target: T1, Ureaplasma TK (Ureaplasma parvum serovar 3, UniProt Q9PPP5); assay: TFT phosphorylation kinetics, phosphoryl transfer assay; type: biochemical; conditions: 100 μM [γ-32P]-ATP
T1 construct: made in house
T1 sequence (Q9PPP5 1-223): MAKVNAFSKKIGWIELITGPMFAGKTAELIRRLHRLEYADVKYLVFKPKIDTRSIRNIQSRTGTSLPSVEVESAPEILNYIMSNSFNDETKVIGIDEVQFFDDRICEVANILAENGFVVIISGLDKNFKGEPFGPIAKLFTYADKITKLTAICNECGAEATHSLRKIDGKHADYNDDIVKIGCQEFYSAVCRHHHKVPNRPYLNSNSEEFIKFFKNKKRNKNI
Procedure: (§4) Figure 3 Substrate saturation curves of TFT with human TK2 (A), human TK1 (B), and Ureaplasma TK (C). Kinetic assays with TFT were performed by using [γ-^32P]-ATP as the labelled substrate at fixed concentration and variable concentrations of TFT. The reaction products were separated by thin layer chromatography, and quantified as described in the experimental procedures.
(§5) Kinetic parameters for TFT were determined by using the phosphoryl transfer assays as previously described. Briefly, each reaction was performed in a total volume of 20 μl containing 50 mM Tris/HCl, pH 7.5, 0.5 mg/ml BSA, 5 mM DTT, 2 mM MgCl2, 15 mM NaF, variable concentrations of TFT, 0.1 mM [γ-^32P]-ATP, and 50 ng purified enzyme at 37°C for 20 min, and stopped by heating at 70°C for 2 min. After brief centrifugation, 1 μl supernatant was spotted onto a TLC plate (PEI-cellulose, Merck) and dried. The TLC plates were developed in isobutyric acid/ammonia/H2O (66:1:33). The reaction products were visualized and quantified by phosphoimaging analysis (Quantity One, Bio-Rad).

human TK2 [2] = biological target: T2, human TK2 (Homo sapiens, UniProt O00142); assay: as above; type: biochemical; conditions: 100 μM [γ-32P]-ATP
T2 construct: made in house
T2 sequence (O00142 34-265): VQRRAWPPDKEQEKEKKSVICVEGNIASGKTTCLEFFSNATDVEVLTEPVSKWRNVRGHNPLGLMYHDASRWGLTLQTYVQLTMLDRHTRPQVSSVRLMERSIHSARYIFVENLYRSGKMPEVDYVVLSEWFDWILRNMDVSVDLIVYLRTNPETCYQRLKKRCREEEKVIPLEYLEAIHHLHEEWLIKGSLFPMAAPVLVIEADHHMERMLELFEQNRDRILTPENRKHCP
Procedure: as §4, §5

human TK1 [3] = biological target: T3, human TK1 (Homo sapiens, UniProt P04183); assay: as above; type: biochemical; conditions: 100 μM [γ-32P]-ATP
T3 construct: made in house
T3 sequence (P04183 1-234): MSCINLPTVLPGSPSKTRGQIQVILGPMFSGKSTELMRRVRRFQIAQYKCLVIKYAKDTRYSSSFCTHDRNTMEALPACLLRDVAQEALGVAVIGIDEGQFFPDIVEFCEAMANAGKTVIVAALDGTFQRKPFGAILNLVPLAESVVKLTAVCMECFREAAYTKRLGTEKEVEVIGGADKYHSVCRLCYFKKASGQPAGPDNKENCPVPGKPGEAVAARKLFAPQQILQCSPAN
Procedure: as §4, §5

TK in Mpn extracts = biological target: T4, TK in Mpn extracts (Mycoplasmoides pneumoniae, UniProt P75070); assay: Inhibition of dT phosphorylation in Mpn protein extracts; type: biochemical; conditions: 10 μM tritium labelled thymidine; read-out: IC50 Mpn extracts
T4 construct: endogenous in cells; host or cells: Mycoplasma pneumoniae M129 total protein extract
T4 sequence (P75070 1-191): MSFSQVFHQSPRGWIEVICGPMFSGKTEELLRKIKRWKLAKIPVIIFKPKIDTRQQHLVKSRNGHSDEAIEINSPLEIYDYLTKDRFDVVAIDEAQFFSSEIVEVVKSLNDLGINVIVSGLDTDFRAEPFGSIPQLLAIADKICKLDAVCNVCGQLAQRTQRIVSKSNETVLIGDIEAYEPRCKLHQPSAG
Procedure: Both TFT and 5FdU are substrates of Mycoplasma and human TKs, as described above and earlier studies.
(§6) Thymidine kinase assay was performed using tritium labelled thymidine ([^3H]-dT) as substrate and various concentrations of the inhibitors essentially as previously described to determine the IC50 values of TFT and 5FdU.

Ureaplasma TK [4] = biological target: T1, Ureaplasma TK; assay: Thymidine kinase inhibition with [3H]-dT as substrate; type: biochemical; conditions: 10 μM tritium labelled thymidine
Procedure: as §6

human TK2 [5] = biological target: T2, human TK2; assay: as above; type: biochemical; conditions: 10 μM tritium labelled thymidine
Procedure: as §6

human TK1 [6] = biological target: T3, human TK1; assay: as above; type: biochemical; conditions: 10 μM tritium labelled thymidine
Procedure: as §6

[7] = 10 μM analog, 70 hours, 37°C, radioactivity in cells / total added
[8] = 10 μM analog, 70 hours, acid insoluble fraction / total in cells

Compound: O=c1[nH]c(=O)n([C@H]2C[C@H](O)[C@@H](CO)O2)cc1C(F)(F)F [Trifluorothymidine (TFT), Trifluorothymidine]
- TS activity (in words) (Mpn TS): unchanged
- Stimulation of [3H]-dT uptake (Mpn wild type cells; 10 μM analog versus control): 2 fold
- [3H]-Ade Total uptake (Mpn wild type cells; [7]): 0.43±0.01%
- [3H]-Gua Total uptake (Mpn wild type cells; [7]): 0.19±0.02%
- [3H]-Hx Total uptake (Mpn wild type cells; [7]): 0.011± 0.001%
- [3H]-Ura Total uptake (Mpn wild type cells; [7]): 0.11±0.002%
- [3H]-dT Total uptake (Mpn wild type cells; [7]): 18.2±0.6%
- [3H]-Ade Incorporation (Mpn wild type cells; [8]): 48±2%
- [3H]-Gua Incorporation (Mpn wild type cells; [8]): 85±4%
- [3H]-Hx Incorporation (Mpn wild type cells; [8]): 67±1%
- [3H]-Ura Incorporation (Mpn wild type cells; [8]): 27±0.2%
- [3H]-dT Incorporation (Mpn wild type cells; [8]): 97.4±0.5%
- TK activity relative to controls (Mpn TK): ~ 3 times
- kcat (Ureaplasma TK [1]): 0.055 ± 0.008 s⁻¹
- Km (Ureaplasma TK [1]; TFT 1 – 100 μM): 9.9 ± 5.2 µM
- kcat (human TK2 [2]): 0.026 ± 0.003 s⁻¹
- Km (human TK2 [2]; TFT 1 – 100 μM): 8.8 ± 3.8 µM
- kcat (human TK1 [3]): 0.043 ± 0.003 s⁻¹
- Km (human TK1 [3]; TFT 1 – 100 μM): 5.9 ± 1.7 µM
- IC50 (TK in Mpn extracts): 9.1 ± 2.9 µM
- IC50 (Ureaplasma TK [4]): 12 ± 4.2 µM
- IC50 (human TK2 [5]): 80 ± 5.6 µM
- IC50 (human TK1 [6]): 9.7 ± 3.2 µM
